Measurements: paper PMC4639830, “Inhibition of DYRK1A and GSK3B induces human β-cell proliferation” (Nature Communications, 2015)

What was measured:
Assay in all cases: Kinase profiling
Assay type in all cases: biochemical
Abl = target: T1, Abl (Homo sapiens, UniProt P00519); conditions: Conc 1000 nM; read-out: Percent inhibition, Abl
T1 construct: purchased Ambit KINOMEscan
Text: (§1) ; Fig. 5a; Supplementary Table 1). We focused on Dyrk1a because other kinases inhibited by aminopyrazine compounds were not highly expressed in β-cells and because Dyrk1a was known to inhibit the NFAT pathway that was previously implicated in β-cell proliferation. We used molecular modelling to dock the aminopyrazine compounds into the published structure of Dyrk1a (protein databank accession code 2vx3.pdb; Fig. 5b).

Axl = target: T2, Axl (Homo sapiens, UniProt P30530); conditions: read-out: Percent inhibition, Axl; for inhibition at 1 µM: Conc 1000 nM
T2 construct: purchased Ambit KINOMEscan
T2 sequence (P30530 26-894): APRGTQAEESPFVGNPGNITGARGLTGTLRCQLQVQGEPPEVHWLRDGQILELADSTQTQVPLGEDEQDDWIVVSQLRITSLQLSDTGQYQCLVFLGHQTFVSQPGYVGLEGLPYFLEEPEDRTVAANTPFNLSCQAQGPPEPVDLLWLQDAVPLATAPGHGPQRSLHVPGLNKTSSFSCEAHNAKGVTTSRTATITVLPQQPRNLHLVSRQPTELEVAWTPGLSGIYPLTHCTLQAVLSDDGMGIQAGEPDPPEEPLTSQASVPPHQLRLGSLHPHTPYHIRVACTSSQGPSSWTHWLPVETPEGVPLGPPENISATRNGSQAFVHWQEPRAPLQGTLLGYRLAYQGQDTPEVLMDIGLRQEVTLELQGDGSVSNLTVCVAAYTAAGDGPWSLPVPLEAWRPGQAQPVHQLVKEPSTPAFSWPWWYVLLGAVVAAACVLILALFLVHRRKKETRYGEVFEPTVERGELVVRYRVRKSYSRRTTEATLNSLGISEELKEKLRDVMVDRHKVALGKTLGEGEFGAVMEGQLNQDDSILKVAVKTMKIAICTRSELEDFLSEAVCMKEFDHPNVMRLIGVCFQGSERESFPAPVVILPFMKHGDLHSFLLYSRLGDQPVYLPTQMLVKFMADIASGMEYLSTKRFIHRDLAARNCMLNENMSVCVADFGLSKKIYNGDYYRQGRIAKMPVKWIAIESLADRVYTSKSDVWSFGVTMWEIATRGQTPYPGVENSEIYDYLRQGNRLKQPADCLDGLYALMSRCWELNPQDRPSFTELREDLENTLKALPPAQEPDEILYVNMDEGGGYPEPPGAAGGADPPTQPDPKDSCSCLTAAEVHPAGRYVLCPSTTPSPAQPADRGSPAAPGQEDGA
Text: as §1

BTK = target: T3, BTK (Homo sapiens, UniProt Q06187); conditions: Conc 1000 nM; read-out: Percent inhibition, BTK
T3 construct: purchased Ambit KINOMEscan
Text: as §1

CDK2/cyclinA = target: T4, CDK2/cyclinA (Homo sapiens, UniProt P24941); conditions: read-out: Percent inhibition, CDK2/cyclinA; for inhibition at 1 µM: Conc 1000 nM
T4 construct: purchased Ambit KINOMEscan
Text: as §1

Flt-3 = target: T5, Flt-3 (Homo sapiens, UniProt P36888); conditions: read-out: Percent inhibition, Flt-3; for inhibition at 1 µM: Conc 1000 nM
T5 construct: purchased Ambit KINOMEscan
T5 sequence (P36888 27-993): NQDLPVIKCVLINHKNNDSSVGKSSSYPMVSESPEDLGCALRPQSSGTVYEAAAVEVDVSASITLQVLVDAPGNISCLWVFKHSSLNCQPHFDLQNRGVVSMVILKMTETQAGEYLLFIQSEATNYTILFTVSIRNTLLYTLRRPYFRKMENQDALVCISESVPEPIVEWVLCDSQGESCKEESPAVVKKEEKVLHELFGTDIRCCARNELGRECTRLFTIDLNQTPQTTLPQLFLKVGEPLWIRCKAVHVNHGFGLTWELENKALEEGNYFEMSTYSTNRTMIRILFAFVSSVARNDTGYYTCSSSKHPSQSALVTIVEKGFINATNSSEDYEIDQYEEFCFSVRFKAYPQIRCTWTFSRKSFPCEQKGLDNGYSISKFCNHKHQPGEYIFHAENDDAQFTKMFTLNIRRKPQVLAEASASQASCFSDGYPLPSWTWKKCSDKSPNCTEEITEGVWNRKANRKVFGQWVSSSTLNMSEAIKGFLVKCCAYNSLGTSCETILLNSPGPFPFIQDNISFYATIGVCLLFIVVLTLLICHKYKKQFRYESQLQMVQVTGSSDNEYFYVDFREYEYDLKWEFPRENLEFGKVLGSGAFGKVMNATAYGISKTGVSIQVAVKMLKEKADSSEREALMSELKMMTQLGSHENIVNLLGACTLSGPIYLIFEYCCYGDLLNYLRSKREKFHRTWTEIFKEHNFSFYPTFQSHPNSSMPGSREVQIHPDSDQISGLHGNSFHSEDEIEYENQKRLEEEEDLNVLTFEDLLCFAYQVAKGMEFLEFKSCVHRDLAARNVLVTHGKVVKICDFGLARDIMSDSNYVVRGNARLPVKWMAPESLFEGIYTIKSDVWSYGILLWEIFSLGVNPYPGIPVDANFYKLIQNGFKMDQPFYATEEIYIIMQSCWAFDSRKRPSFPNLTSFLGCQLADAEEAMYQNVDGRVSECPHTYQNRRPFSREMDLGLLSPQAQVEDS
Text: as §1

LynA = target: T6, LynA (Homo sapiens, UniProt P07948); conditions: Conc 1000 nM; read-out: Percent inhibition, LynA
T6 construct: purchased Ambit (KINOMEscan)
Text: as §1

MEK1 = target: T7, MEK1 (Homo sapiens, UniProt Q02750); conditions: Conc 1000 nM; read-out: Percent inhibition, MEK1
T7 construct: purchased Ambit (KINOMEscan)
Text: as §1

PDGFRa = target: T8, PDGFRa (Homo sapiens, UniProt P16234); conditions: read-out: Percent inhibition, PDGFRa; for inhibition at 1 µM: Conc 1000 nM
T8 construct: purchased Ambit (KINOMEscan)
Text: as §1

PDGFRb = target: T9, PDGFRb (Homo sapiens, UniProt P09619); conditions: read-out: Percent inhibition, PDGFRb; for inhibition at 1 µM: Conc 1000 nM
T9 construct: purchased Ambit (KINOMEscan)
Text: as §1

PDK1 = target: T10, PDK1 (Homo sapiens, UniProt O15530); conditions: Conc 1000 nM; read-out: Percent inhibition, PDK1
T10 construct: purchased Ambit (KINOMEscan)
Text: as §1

PLK1 = target: T11, PLK1 (Homo sapiens, UniProt P53350); conditions: Conc 1000 nM; read-out: Percent inhibition, PLK1
T11 construct: purchased Ambit (KINOMEscan)
Text: as §1

ROS = target: T12, ROS (Homo sapiens, UniProt P08922); conditions: read-out: Percent inhibition, ROS; for inhibition at 1 µM: Conc 1000 nM
T12 construct: purchased Ambit (KINOMEscan)
Text: as §1

TYRO3 = target: T13, TYRO3 (Homo sapiens, UniProt Q06418); conditions: Conc 1000 nM; read-out: Percent inhibition, TYRO3
T13 construct: purchased Ambit (KINOMEscan)
Text: as §1

T8 sequence (P16234 24-1089): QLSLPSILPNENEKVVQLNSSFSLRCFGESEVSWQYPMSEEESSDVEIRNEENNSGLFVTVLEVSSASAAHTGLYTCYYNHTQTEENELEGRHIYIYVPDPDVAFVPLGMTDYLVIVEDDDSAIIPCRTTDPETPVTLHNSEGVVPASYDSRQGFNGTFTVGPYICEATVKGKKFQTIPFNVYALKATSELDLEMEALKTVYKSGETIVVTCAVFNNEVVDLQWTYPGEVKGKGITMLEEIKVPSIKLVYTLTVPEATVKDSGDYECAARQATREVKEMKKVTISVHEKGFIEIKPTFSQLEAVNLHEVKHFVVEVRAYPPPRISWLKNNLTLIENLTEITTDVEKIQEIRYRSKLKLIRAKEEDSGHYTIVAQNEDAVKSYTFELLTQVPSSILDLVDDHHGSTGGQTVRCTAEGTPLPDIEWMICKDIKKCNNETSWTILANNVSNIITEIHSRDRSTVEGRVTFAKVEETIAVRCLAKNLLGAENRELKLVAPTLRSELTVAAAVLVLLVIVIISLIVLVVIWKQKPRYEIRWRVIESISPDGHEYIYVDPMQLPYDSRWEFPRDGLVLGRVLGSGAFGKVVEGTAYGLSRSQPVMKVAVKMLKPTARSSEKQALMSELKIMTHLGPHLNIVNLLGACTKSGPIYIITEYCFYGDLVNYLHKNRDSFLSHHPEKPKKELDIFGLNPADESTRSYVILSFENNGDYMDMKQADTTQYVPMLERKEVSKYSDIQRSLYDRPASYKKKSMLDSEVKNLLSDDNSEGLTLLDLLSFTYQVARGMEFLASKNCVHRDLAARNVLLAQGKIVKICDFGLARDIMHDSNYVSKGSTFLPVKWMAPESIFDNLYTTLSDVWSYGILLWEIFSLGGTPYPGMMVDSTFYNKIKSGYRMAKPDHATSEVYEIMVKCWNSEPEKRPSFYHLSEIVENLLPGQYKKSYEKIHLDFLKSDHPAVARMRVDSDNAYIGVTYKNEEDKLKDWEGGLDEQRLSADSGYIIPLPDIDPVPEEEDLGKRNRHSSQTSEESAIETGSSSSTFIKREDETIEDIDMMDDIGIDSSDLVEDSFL
T9 sequence (P09619 33-1106): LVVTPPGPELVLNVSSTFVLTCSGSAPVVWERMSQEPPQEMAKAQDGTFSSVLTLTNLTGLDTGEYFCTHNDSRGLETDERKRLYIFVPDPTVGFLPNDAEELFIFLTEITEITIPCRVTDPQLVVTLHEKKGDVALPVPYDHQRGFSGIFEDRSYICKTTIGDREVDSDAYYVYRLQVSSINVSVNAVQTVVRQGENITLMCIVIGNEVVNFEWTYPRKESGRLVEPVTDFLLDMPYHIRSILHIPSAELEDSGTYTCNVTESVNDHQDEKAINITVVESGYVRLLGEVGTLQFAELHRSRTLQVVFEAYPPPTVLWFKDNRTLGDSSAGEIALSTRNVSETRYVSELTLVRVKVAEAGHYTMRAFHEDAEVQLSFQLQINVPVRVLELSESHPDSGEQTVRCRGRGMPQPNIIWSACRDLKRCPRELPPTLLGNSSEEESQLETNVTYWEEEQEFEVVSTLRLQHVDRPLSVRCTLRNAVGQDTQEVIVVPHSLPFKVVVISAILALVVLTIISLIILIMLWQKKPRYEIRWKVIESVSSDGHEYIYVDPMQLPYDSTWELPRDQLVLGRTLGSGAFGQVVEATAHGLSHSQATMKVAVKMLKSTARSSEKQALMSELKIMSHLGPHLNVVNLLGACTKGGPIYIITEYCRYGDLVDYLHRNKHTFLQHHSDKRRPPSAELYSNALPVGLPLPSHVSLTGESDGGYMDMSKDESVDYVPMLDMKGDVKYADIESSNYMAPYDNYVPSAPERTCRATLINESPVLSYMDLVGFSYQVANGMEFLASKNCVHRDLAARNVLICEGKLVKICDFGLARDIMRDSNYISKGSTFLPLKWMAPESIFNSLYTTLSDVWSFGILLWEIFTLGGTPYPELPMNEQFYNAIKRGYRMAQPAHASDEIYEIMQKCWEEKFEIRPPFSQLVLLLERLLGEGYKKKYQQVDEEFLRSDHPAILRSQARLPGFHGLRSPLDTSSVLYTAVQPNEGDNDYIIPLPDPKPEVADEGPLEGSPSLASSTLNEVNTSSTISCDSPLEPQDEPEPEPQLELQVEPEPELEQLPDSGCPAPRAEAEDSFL
T12 sequence (P08922 28-2347): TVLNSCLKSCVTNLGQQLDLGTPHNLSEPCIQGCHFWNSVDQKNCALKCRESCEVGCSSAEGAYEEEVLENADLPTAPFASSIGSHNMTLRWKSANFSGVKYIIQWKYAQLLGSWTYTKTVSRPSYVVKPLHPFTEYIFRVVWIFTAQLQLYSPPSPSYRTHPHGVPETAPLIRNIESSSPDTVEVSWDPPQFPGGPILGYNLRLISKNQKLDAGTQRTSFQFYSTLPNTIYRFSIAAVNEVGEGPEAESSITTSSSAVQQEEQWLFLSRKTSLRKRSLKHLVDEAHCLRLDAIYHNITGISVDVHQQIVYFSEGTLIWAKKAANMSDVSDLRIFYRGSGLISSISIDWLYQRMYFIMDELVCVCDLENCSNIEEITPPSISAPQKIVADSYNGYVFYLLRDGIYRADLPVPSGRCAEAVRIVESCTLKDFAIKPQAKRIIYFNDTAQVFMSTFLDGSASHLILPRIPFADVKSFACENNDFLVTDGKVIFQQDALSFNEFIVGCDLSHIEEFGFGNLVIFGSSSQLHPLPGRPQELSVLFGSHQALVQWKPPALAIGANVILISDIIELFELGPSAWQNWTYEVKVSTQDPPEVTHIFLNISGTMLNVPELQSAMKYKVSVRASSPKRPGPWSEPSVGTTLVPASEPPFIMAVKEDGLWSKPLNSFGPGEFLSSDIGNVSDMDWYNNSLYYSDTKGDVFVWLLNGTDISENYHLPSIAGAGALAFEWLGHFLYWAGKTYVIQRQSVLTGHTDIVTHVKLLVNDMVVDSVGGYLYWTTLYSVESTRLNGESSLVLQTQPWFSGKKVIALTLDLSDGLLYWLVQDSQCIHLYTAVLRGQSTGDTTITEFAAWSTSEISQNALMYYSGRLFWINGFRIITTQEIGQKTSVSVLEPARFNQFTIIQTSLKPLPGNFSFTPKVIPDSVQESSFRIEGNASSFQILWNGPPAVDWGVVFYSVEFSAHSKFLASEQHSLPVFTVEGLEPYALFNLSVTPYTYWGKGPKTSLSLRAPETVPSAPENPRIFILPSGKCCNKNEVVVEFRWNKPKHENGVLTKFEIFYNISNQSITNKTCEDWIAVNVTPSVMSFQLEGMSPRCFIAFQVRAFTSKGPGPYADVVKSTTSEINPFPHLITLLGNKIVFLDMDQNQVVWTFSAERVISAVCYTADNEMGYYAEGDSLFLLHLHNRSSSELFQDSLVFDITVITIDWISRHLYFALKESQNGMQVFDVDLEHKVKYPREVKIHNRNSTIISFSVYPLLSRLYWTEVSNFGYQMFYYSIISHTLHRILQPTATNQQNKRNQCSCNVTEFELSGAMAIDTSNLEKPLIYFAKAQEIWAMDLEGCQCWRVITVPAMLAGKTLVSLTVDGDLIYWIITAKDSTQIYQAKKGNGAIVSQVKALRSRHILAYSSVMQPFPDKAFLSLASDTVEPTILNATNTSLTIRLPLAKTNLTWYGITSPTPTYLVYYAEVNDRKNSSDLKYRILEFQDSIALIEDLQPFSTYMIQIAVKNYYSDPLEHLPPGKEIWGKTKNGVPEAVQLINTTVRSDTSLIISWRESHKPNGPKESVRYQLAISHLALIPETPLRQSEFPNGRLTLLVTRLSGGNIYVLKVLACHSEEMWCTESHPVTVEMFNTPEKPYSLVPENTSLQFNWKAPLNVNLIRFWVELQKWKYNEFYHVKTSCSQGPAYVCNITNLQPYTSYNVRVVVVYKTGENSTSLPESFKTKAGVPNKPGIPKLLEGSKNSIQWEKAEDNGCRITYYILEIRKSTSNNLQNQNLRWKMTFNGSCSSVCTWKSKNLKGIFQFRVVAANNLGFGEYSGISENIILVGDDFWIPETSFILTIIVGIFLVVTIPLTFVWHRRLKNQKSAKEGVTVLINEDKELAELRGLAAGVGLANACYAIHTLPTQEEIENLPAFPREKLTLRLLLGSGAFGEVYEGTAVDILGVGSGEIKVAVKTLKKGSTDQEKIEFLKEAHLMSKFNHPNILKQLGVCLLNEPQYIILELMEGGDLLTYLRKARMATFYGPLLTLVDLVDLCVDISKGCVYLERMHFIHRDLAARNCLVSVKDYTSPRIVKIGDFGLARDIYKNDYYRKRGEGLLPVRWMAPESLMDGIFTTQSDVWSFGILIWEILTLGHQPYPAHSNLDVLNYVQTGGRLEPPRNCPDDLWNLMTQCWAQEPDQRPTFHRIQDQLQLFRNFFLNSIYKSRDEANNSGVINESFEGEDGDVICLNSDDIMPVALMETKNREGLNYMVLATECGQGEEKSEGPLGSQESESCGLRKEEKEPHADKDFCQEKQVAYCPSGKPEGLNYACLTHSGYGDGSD
T11 sequence (P53350 whole entry): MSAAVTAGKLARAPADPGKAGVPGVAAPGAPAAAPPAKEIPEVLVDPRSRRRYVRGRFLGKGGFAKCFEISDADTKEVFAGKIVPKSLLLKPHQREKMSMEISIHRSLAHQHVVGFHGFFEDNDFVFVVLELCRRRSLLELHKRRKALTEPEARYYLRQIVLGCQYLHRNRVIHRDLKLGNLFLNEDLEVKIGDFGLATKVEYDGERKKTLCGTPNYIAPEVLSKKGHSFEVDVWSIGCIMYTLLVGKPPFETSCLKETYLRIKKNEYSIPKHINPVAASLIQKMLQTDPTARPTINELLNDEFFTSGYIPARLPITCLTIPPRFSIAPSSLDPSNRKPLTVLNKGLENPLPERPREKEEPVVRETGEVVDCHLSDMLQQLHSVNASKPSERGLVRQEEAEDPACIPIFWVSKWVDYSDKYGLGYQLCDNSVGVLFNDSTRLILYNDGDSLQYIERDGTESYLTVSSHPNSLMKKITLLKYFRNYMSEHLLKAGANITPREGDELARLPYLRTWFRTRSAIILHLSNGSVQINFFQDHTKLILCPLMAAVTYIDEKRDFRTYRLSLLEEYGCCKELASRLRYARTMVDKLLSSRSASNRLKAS

Row | Structure (SMILES) | inhibition at 1 µM (Abl) | inhibition at 1 µM (Axl) | inhibition at 1 µM (BTK) | inhibition at 1 µM (CDK2/cyclinA) | inhibition at 1 µM (Flt-3) | inhibition at 1 µM (LynA) | inhibition at 1 µM (MEK1) | inhibition at 1 µM (PDGFRa) | inhibition at 1 µM (PDGFRb) | inhibition at 1 µM (PDK1) | inhibition at 1 µM (PLK1) | inhibition at 1 µM (ROS) | inhibition at 1 µM (TYRO3) | inhibition at 0.2 µM (Axl; Conc 200 nM) | inhibition at 0.2 µM (CDK2/cyclinA; Conc 200 nM) | inhibition at 0.2 µM (Flt-3; Conc 200 nM) | inhibition at 0.2 µM (PDGFRa; Conc 200 nM) | inhibition at 0.2 µM (PDGFRb; Conc 200 nM) | inhibition at 0.2 µM (ROS; Conc 200 nM)
1 | Nc1ncc(-c2ccccc2)nc1C(=O)Nc1cnccc1N1CCC(C(=O)O)CC1 [GNF7156] | 90% | 88% | 83% | 90% | 64% | 56% | 50% | 78% | 94% | 43% | 85% | 96% | 52% | – | – | – | – | – | –
2 | CC(C)Oc1ccc(F)c(-c2cnc(N)c(C(=O)Nc3cnccc3N3CCC[C@@H](C(=O)O)C3)n2)c1 [GNF4877] | 66% | 94% | 42% | 95% | 86% | 54% | 17% | 88% | 94% | 45% | 22% | 97% | 46% | 74% | 67% | 36% | 0% | 0% | 71%
